The supplement of paper PMC10307832

What was measured:
Test in all cases: relative viability (nuclei count vs DMSO), 5 days (fraction); higher = more cells survive
[1] = compound: C1CC2=C(C1)C=C(C=C2)OC3=NC(=C4C(=N3)N(C=N4)CC5=CC=C(C=C5)C6=CC=CC=C6)N[C@@H](CC7=CC=CC=C7)CO [QS11] + COc1cccc2cc(-c3nc([C@H]4CC[C@H](C(=O)O)CC4)n4ncnc(N)c34)[nH]c12 [OSI-027] (partner 0.5 µM)
In short: (§1)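 Relative viability equals treated-well nuclei counts divided by vehicle-well nuclei counts. Counts came from 4× images of lung cancer cell lines grown in 1536-well plates for 5 days after pin-tool dosing on the day after seeding. Dosing used one drug alone or a fixed anchor-drug dose plus five library-drug doses (not always all listed) in √10 steps, and values are medians of duplicate plates.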

[2] = compound: C1CC2=C(C1)C=C(C=C2)OC3=NC(=C4C(=N3)N(C=N4)CC5=CC=C(C=C5)C6=CC=CC=C6)N[C@@H](CC7=CC=CC=C7)CO [QS11] + Nc1ncn([C@H]2C[C@H](O)[C@@H](CO)O2)c(=O)n1 [Decitabine] (partner 2 µM)
In short: as §1

[3] = compound: CC1=C(C=C(C=C1)NC(=O)C2=CC(=CC=C2)C(C)(C)C#N)NC3=CC4=C(C=C3)N=CN(C4=O)C [AZ628] + CC1(C)CCC(c2ccc(Cl)cc2)=C(CN2CCN(c3ccc(C(=O)NS(=O)(=O)c4ccc(N[C@H](CCN5CCOCC5)CSc5ccccc5)c(S(=O)(=O)C(F)(F)F)c4)cc3)CC2)C1 [Navitoclax] (partner 0.5 µM)
In short: as §1

[4] = compound: CC1=C(C=C(C=C1)NC(=O)C2=CC(=CC=C2)C(C)(C)C#N)NC3=CC4=C(C=C3)N=CN(C4=O)C [AZ628] + NC(=O)Nc1cc(-c2cccc(F)c2)sc1C(=O)N[C@H]1CCCNC1 [AZD7762] (partner 0.2 µM)
In short: as §1

Row | Cell Line | relative viability ([1]; first compound 0.08 µM) | relative viability ([1]; first compound 0.253 µM) | relative viability ([1]; first compound 0.8 µM) | relative viability ([1]; first compound 8 µM) | relative viability ([2]; first compound 0.08 µM) | relative viability ([2]; first compound 0.253 µM) | relative viability ([2]; first compound 0.8 µM) | relative viability ([2]; first compound 2.53 µM) | relative viability ([2]; first compound 8 µM) | relative viability ([3]; first compound 0.08 µM) | relative viability ([3]; first compound 0.253 µM) | relative viability ([3]; first compound 0.8 µM) | relative viability ([3]; first compound 2.53 µM) | relative viability ([3]; first compound 8 µM) | relative viability ([4]; first compound 0.08 µM) | relative viability ([4]; first compound 0.253 µM) | relative viability ([4]; first compound 0.8 µM) | relative viability ([4]; first compound 2.53 µM) | relative viability ([4]; first compound 8 µM) | relative viability ([1]; first compound 2.53 µM)
1 | 201T | 0.759 | 0.685 | 0.662 | 0.836 | 0.8 | 0.907 | 0.74 | 0.901 | 0.694 | 1.22 | 1.21 | 1.25 | 1.27 | 1.23 | 0.523 | 0.541 | 0.57 | 0.462 | 0.45 | –
2 | A549 | – | – | – | – | 0.224 | 0.215 | 0.271 | 0.214 | 0.212 | 1.19 | 1.16 | 1.02 | 1.12 | 0.589 | – | – | – | – | – | –
3 | A-427 | 0.411 | 0.455 | – | 0.408 | 0.523 | 0.561 | – | 0.613 | 0.674 | 0.875 | 0.826 | 0.726 | 0.671 | 0.31 | 0.591 | 0.569 | 0.6 | 0.524 | 0.352 | 0.507
4 | ABC-1 | 0.477 | 0.348 | 0.519 | 0.457 | 0.946 | 1.04 | 0.907 | 1.12 | 0.949 | – | – | – | – | – | 0.761 | 0.786 | 0.768 | 0.865 | 0.745 | 0.492
5 | BEN | 0.304 | 0.316 | 0.309 | 0.3 | 0.717 | 0.775 | 0.74 | 0.713 | 0.695 | 0.0576 | 0.0642 | 0.0651 | 0.0689 | 0.0471 | 0.678 | 0.593 | 0.653 | 0.614 | 0.587 | 0.33
6 | CAL-12T | 0.656 | 0.457 | 0.498 | 0.407 | – | – | – | – | – | 1.33 | – | 1.24 | 1.28 | 0.826 | 0.806 | 0.622 | 0.561 | 0.656 | 0.501 | 0.385
7 | COR-L23 | 0.756 | 0.881 | 0.568 | 0.444 | 0.44 | 0.433 | 0.443 | 0.357 | 0.302 | 1.02 | 1.12 | 1.2 | 1.07 | 0.492 | – | – | – | – | – | 0.475
8 | COR-L 105 | 0.711 | 0.521 | 0.547 | 0.447 | 0.747 | 0.633 | 0.731 | 0.639 | 0.599 | 0.81 | 0.967 | 0.761 | 0.655 | 0.652 | – | – | – | – | – | 0.629
9 | Calu-6 | – | – | – | – | – | – | – | – | – | 0.926 | 0.494 | 0.317 | 0.595 | 0.152 | – | – | – | – | – | –
10 | ChaGo-K-1 | 0.358 | 0.666 | 0.749 | 0.569 | – | 0.515 | 0.5 | 0.56 | 0.443 | 1.1 | – | 0.751 | 1.1 | 1.14 | 0.935 | 0.821 | 0.805 | 0.853 | 0.663 | 0.659
11 | EBC-1 | – | – | – | – | – | – | – | – | – | 0.349 | 0.427 | 0.325 | 0.326 | 0.224 | – | – | – | – | – | –
12 | EKVX | 0.644 | 0.635 | – | 0.693 | 0.321 | 0.44 | 0.327 | 0.392 | 0.341 | 0.982 | 0.925 | 1.11 | 0.966 | 0.589 | 0.71 | 0.755 | 0.558 | 0.704 | 0.64 | 0.596
13 | EMC-BAC-2 | 0.391 | 0.397 | 0.452 | 0.337 | 0.939 | 1.07 | 0.842 | 0.913 | 0.854 | 1.26 | 1.09 | 1.07 | 1.06 | 1.05 | 1.16 | 1.09 | 1.18 | 1.13 | 1.28 | 0.373
14 | EPLC-272H | – | 0.287 | 0.253 | 0.26 | – | 0.382 | 0.388 | 0.385 | 0.341 | 1.02 | 1.04 | 1.24 | 1.1 | 0.709 | 0.34 | 0.168 | 0.165 | 0.22 | 0.236 | 0.259
15 | H3255 | 0.593 | 0.675 | – | 0.608 | 0.578 | 0.64 | – | 0.556 | 0.674 | 0.496 | 0.503 | 0.558 | 0.489 | 0.227 | 0.852 | 0.726 | 0.806 | 1.01 | 0.684 | 0.558
16 | HARA | 0.41 | 0.453 | – | 0.595 | 0.508 | – | 0.36 | 0.605 | 0.389 | 1.2 | 1.12 | 1.13 | 1.14 | 0.591 | 0.299 | 0.216 | 0.272 | 0.363 | 0.228 | 0.457
17 | HCC-15 | 0.641 | 0.674 | 0.646 | 0.475 | 0.697 | 0.737 | 0.573 | 0.586 | 0.525 | 0.676 | 0.619 | 0.54 | 0.474 | 0.312 | 1.16 | 1.07 | 1.08 | 1.01 | 0.894 | 0.665
18 | HCC-44 | 0.606 | 0.531 | 0.512 | 0.378 | 1.08 | 0.936 | 0.572 | 0.922 | 0.916 | 0.966 | 1 | 0.996 | 1.06 | 0.874 | 1.01 | 0.945 | 1.08 | 1.04 | 1.24 | 0.593
19 | HCC-78 | 0.405 | 0.351 | 0.35 | 0.478 | 0.687 | 0.772 | 0.662 | 0.797 | 0.719 | 0.902 | 0.782 | 0.85 | 0.746 | 0.92 | 0.808 | 0.663 | 0.644 | 0.85 | 0.787 | 0.435
